Experimental findings from patent US20070021412A1, “Treatment of gastrointestinal dysfunction and related stress with an enantiomerically-pure (S) 2,3-benzodiazepine” (Vela Pharmaceuticals, Inc., priority 2003, published 2007) are described below.

Assay [1] relates to Gastrointestinal Propulsive Motility. The experiment in a line: Charcoal Meal Test (basal gastrointestinal propulsion). The assay is classed as in vivo, rat. Conditions: for % Inhibition (gastrointestinal propulsive motility): numbers in parentheses indicate % increase. How it is done: The charcoal meal test is a standard method for evaluating the effect of compounds on basal, nonstimulated propulsive motility of the stomach and small intestine. It is generally considered predictive of a compound's ability to inhibit or accelerate basal gastric propulsion in humans. In the test, usually performed in rats, nonactivated charcoal powder is administered by oral gavage. Sixty minutes after administration of the charcoal suspension, rats were sacrificed by CO2 inhalation, the stomach and small intestine were removed, and the distance between the pylorus and the furthest progression of the charcoal meal was measured and compared to the distance between the pylorus and the ileocecal junction. This model is especially sensitive to compounds with the ability to increase or decrease basal propulsive motor activity of the stomach and small intestine. It is therefore often used to predict the potential for compounds to exert antidiarrheal or anticonstipatory effects, as well as to predict the potential for compounds to produce diarrhea or constipation as a side-effect. Two charcoal meal test were performed in rats. In each study, (RS)-, (R)-and (S)-tofisopam were evaluated for their for their ability to increase or decrease the percent of the intestine traversed by a charcoal meal. Test compounds were administered 30 minutes prior to administration of the charcoal meal.

In assay [2] the test system is visceral hypersensitivity, pain, and bloating induced by colonic distension. The experiment in a line: Visceral hypersensitivity, pain and bloating test (abdominal contractions after colonic distension and acetic acid). The assay is classed as in vivo, rat. Conditions: 32 mg/kg p.o. Here is the method:
In yet another gastrointestinal disorder model, the visceral pain and bloating test, the ability of (R)- and (S)-tofisopam to inhibit abdominal contractions in the rat was investigated. (R)- and (S)-tofisopam were able to inhibit abdominal contractions to a greater extent than racemic tofisopam. The effects of (R)-tofisopam, (S)-tofisopam, and (RS)-tofisopam were evaluated for alleviating visceral hypersensitivity, pain, and bloating. […] Eur. J. Pharmacol. 324: 211-217 (1997); Langlois et al. Eur. J. Pharmacol. 318: 141-144 (1996)). The acetic acid makes the colon hypersensitive, modeling the visceral hypersensitivity seen in IBS. The colonic distension models the pain and bloating seen in IBS, and causes abdominal contractions in rats. In the control group 13.8±2.0 abdominal contractions were measured over the 10-minute period of observation.

For assay [3], the system named is Colonic Propulsive Motility. The experiment in a line: Glass Bead Test (stretch-stimulated colonic propulsion). The assay is classed as in vivo, mouse. Conditions: for Expulsion Time Mean ± SEM: 30 minutes before bead, cutoff 30 minutes, in min. How it is done:
In the test, usually performed in mice, a 3-mm glass bead is inserted through the anus into the distal colon (using a glass rod) to a depth of 2 cm. The time to expel the glass bead is then measured; normally, the glass bead is expelled in approximately 10 minutes. This model is especially sensitive to compounds with inhibitory effects on stretch-stimulated propulsive motor activity; as such, it is often used as an animal model for IBS. A test compound that inhibits stretch-stimulated-colonic propulsive motility may be used to treat gastrointestinal dysfunction, including IBS. Both enantiomerically-pure (R)- and (S)-tofisopam inhibited propulsive motility to a greater extent than the racemate.
The glass bead test is commmonly used to evaluate the ability of compounds to affect stimulated colonic propulsion. In the test, usually performed in mice, a 3-mm glass bead is inserted through the anus into the distal colon (using a glass rod) to a depth of 2 cm. The time to expel the glass bead is then measured; normally, the glass bead is expelled in approximately 10 minutes. This model is especially sensitive to compounds with inhibitory effects on stretch-stimulated propulsive motor activity; as such, it is often used as an animal model for IBS.
In each study, (RS)-, (R)- and (S)-tofisopam were evaluated for their ability to increase or decrease the time for expulsion of the glass bead. Test compounds were administered 30 minutes prior to insertion of the bead, and a maximum time cutoff of 30 minutes to expulsion was used.

For assay [4], the system named is stress-induced ulcer formation. The experiment in a line: Water immersion stress-induced ulcers test. The assay is classed as in vivo, rat. The settings on record: for Ulceration Index: ulcer score × percentage of stomachs showing ulcers; for Score for the Presence of Ulcers Mean ± SEM: score 0-4, N = 8.

Turning to `CC[C@@H]1C(C)=NN=C(c2ccc(OC)c(OC)c2)c2cc(OC)c(OC)cc21` [(S)-tofisopam, (S)-1-(3,4-dimethoxyphenyl)-4-methyl-5-ethyl-7,8-dimethoxy-5H-2,3-benzodiazepine], the “% Intestine Traversed, Mean ± SEM” value stood at 75.7 ± 3.1% in assay [1] (first experiment, 64 mg/kg IP); 79.1 ± 1.3% in assay [1] (second experiment, 4 mg/kg IP); 80.9 ± 1.9% in assay [1] (second experiment, 8 mg/kg IP); 73.3 ± 1.2% in assay [1] (second experiment, 16 mg/kg IP); 60.8 ± 2.8 % in assay [1] (second experiment, 32 mg/kg IP). The “% Inhibition (gastrointestinal propulsive motility)” value amounted to 7.1% in assay [1] (first experiment, 64 mg/kg IP); 1.9% in assay [1] (second experiment, 16 mg/kg IP); 19.7% in assay [1] (second experiment, 32 mg/kg IP). The “number of abdominal cramps” value in assay [2] (vehicle control 18.8±1.8 cramps) was 10.4±1.3 cramps. In addition, the “decrease of abdominal cramps” value in assay [2] (versus vehicle control) is 45%. In addition, the “% Inhibition (colonic expulsion)” value in assay [3] (32 mg/kg IP) and in assay [3] (64 mg/kg IP) was 100% in each case. Besides, the “Expulsion Time Mean ± SEM” value in assay [3] (32 mg/kg IP) and in assay [3] (64 mg/kg IP) was 30.0 ± 0.0 each time. Besides, the “Ulceration Index” value in assay [4] (16 mg/kg IP) is 313; in assay [4] (32 mg/kg IP) it was 42; in assay [4] (64 mg/kg IP) it was 47. Also, the “% of Stomachs Showing Ulcers” value in assay [4] (32 mg/kg IP) and in assay [4] (64 mg/kg IP) was 38% throughout. Further, the “Score for the Presence of Ulcers Mean ± SEM” value in assay [4] (32 mg/kg IP) was 1.1 ± 0.4; in assay [4] (64 mg/kg IP), 1.3 ± 0.3.
